Columns and labels:
[1] = tested on: FabC4 antibody fragment; assay: ELISA of synthetic peptides for binding to FabC4; conditions: 2.5 μg/well peptide, FabC4 1 ug, 492 nm
Description: Clones A5, A7, C4 and D6, which were able to discriminate the serum of individuals with BC from BBD and NC by Phage-ELISA, were chemically synthesized by GenScript USA Inc. To increase immunogenicity, the peptides were coupled to BSA. Enzyme immunoassays were conducted to assess the ability of FabC4 antibody to recognize these peptides.
(§1) A microtiter plate was sensitized with 2.5 μg/well of each of the peptides diluted in carbonate/bicarbonate buffer (50 mM pH 9.6) and kept for 16 hours at 4° C. After blocking with PBS1X-BSA3% (1 hour at 37° C.) a single wash with PBS1X preceded the addition of FabC4 (1 ug), incubated for 1 hour at 37° C. After washing with PBS1X, anti-HA antibody which was labeled with peroxidase (Roche Applied Science) diluted 1:5000 in PBS-BSA3% for 1 h at 37° C. was added. After washing with PBS1X, the reaction with the OPD SigmaFast® (Sigma-Aldrich) substrate, interrupted with H2SO4 (2N), was analyzed in a spectrophotometer at a length of 492 nm (TP-Reader ThermoPlate).

[2] = tested on: serum from 150 patients (BC, BBD, NC); assay: ELISA of synthetic peptides against serum of 150 patients (diagnostic ability); type: binding, human; conditions: serum from 150 patients (50 from each study group)
Description: as §1
The same conditions were used to analyze the diagnostic capacity of the peptides against the serum of the 150 patients previously described. Again, ANOVA and Mann Whitney tests were used for comparative purposes between groups with the aid of the GraphPad Prism 7.0 (GraphPad Software Inc.—La Jolla, Calif., USA) software. Values of P<0.05 were considered significant.

VMPAAKYSLRVL (listed as Homo sapiens) [pC4, chemically synthesized peptide expressed in phage C4]
absorbance, binding to FabC4 by ELISA [1]: highest absorbance

VTPCSSFSSFLP (listed as Homo sapiens) [pD6, chemically synthesized peptide of clone D6]
reactivity between the samples [2]: differential reactivity between the samples
